Source: patent US6750008B1, “Methods and compositions for inhibition of membrane fusion-associated events, including HIV transmission” (priority 1999, dated 2004)
Entries after “also recorded” stand apart in the source; their conditions may differ.

What was measured:
RSV = experiment: Anti-RSV antiviral activity assay (syncytial formation, Hep-2 cells); format: cell-based, respiratory syncytial virus; details: purified peptides
Procedure: The assay utilized herein tested the ability of the peptides to disrupt the ability of HEp2 cells acutely infected with RSV (i.e., cells which are infected with a multiplicity of infection of greater than 2) to fuse and cause syncytial formation on a monolayer of uninfected an uninfected line of Hep-2 cells. The lower the observed level of fusion, the greater the antiviral activity of the peptide was determined to be. […]
After incubation, cells in control wells were checked for fusion centers, media was removed from the wells, followed by addition, to each well, of either Crystal Violet stain or XTT. […] The number of syncytia per well were then counted, using a dissecting microscope.
With respect to XTT (2,3-bis[2-Methoxy-4-nitro-5-sulfophenyl]-2H-tetrazolium-5-carboxyanilide inner salt), 50 μl XTT (1 mg/ml in RPMI buffered with 100 mM HEPES, pH 7.2-7.4, plus 5% DMSO) were added to each well. The OD450/690 was measured (after blanking against growth medium without cells or reagents, and against reagents) according to standard procedures. […]

HIV-1LAI virus [1] = details: FIG. 1 legend
Procedure: Synthetic peptides were incubated at 37° C. with either 247 TCID50 (for experiment depicted in FIG. 2), or 62 TCID50 (for experiment depicted in FIG. 3) units of HIV-1LAI virus or 25 TCID50 units of HIV-2NIHZ and CEM CD4^+ cells at peptide concentrations of 0, 0.04, 0.4, 4.0, and 40 μg/ml for 7 days. The resulting reverse transcriptase (RT) activity in counts per minute was determined using the assay described, below, in Section 6.1.5. See Reed, L. J. et al., 1938, Am. J. Hyg. 27: 493-497 for an explanation of TCID50 calculations.
The micro-reverse transcriptase (RT) assay was adapted from Goff et al. (Goff, S. et al., 1981, J. Virol. 38:239-248) and Willey et al. (Willey, R. et al., 1988, J. Virol. 62:139-147). Supernatants from virus/cell cultures are adjusted to 1% Triton-X100. A 10 μl sample of supernatant was added to 50 μl of RT cocktail in a 96-well U-bottom microtitre plate and the samples incubated at 37° C. for 90 min. The RT cocktail contained 75 mM KCl, 2 mM dithiothreitol, 5 mM MgCl2, 5 μg/ml poly A (Pharmacia, cat. No. 27-4110-01), 0.25 units/ml oligo dT (Pharmacia, cat. No. 27-7858-01), 0.05% NP40, 50 mM Tris-HCl, pH 7.8, 0.5 μM non-radioactive dTTP, and 10 μCi/ml ^32P-dTTP (Amersham, cat. No. PB.10167).
After the incubation period, 40 μl of reaction mixture was applied to a Schleicher and Schuell (S+S) NA45 membrane (or DE81 paper) saturated in 2×SSC buffer (0.3M NaCl and 0.003M sodium citrate) held in a S+S Minifold over one sheet of GB003 (S+S) filter paper, with partial vacuum applied. Each well of the minifold was washed four times with 200 μl 2×SSC, under full vacuum. The membrane was removed from the minifold and washed 2 more times in a pyrex dish with an excess of 2×SSC. Finally, the membrane was drained on absorbent paper, placed on Whatman #3 paper, covered with Saran wrap, and exposed to film overnight at −70° C.
DP178 (SEQ ID:1) was next tested for its ability to block CD-4^+ CEM cell infection by cell free HIV-1 virus. […]

[2] = target: T1, DP107-like domain of the RSV F1 protein (Human respiratory syncytial virus A, UniProt P03420); format: binding
T1 construct: made in house
T1 sequence (P03420 142-302): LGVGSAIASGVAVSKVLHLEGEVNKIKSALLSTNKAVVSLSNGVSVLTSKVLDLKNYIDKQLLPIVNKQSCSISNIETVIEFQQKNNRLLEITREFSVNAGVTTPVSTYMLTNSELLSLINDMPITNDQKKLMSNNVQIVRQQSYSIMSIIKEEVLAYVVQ
Procedure: After incubation and washing, unbound Fab-d is removed from the plates and bound Fab-d is quantitated. A no-inhibitor control should also be conducted.
Such an assay takes advantages of accepted radioligand and receptor binding principles.
Specifically, the DNA sequence corresponding amino acid residues 142-302 of the RSV F1 protein was amplified by PCR and cloned into the Xmn I site of the expression vector pMal-p2 (New England Biolab) to give MF5.1. These amino acid residues correspond to the extracellular domain of the RSV F1 protein including its DP107 region but excluding the DP178 region.
Cell fusion assays were performed with each of the peptides as described in Section 17 above. The binding affinity of each peptide was also measured in a competitive binding assay described in Section 5.6.1 above, wherein the concentration of each peptide necessary to bind to the M5.1 fusion protein (i.e., the B50 value), and thereby disrupt binding of biotin labeled T112 (T888) to the fusion protein, was measured.

HIV-1LAI virus [3] = experiment: Cell fusion assay (HIV-1 induced syncytia formation); format: cell-based
From the text: The results of several such experiments are presented herein.

[4] = target: viral gp41 of HIV-1 (on virions and HIV-1 infected cells) (HIV-1) (UniProt P03377); experiment: cell-based or functional assay
CEM cells = experiment: Cell proliferation and toxicity assay; format: cell-based; details: 3 days, highest concentration tested 40 μg/ml
Procedure: Cell proliferation and toxicity assay: Approximately 3.8×10^5 CEM cells for each peptide concentration were incubated for 3 days at 37° C. in T25 flasks. Peptides tested were DP178 (SEQ ID:1) and DP-116 (SEQ ID:9), as described in FIG. 1. Peptides were synthesized as described, above, in Section 6.1. The concentrations of each peptide used were 0, 2.5, 10, and 40 μg/ml. Cell counts were taken at incubation times of 0, 24, 48, and 72 hours.

## CC[C@H](C)[C@H](NC(=O)[C@H](Cc1ccccc1)NC(=O)[C@H](C)NC(=O)[C@H](CC(C)C)NC(=O)[C@H](CO)NC(=O)[C@H](CCC(N)=O)NC(=O)[C@H](CC(N)=O)NC(=O)[C@@H](NC(=O)[C@H](CCCCN)NC(=O)[C@H](CCC(=O)O)NC(=O)[C@H](CC(N)=O)NC(=O)[C@@H](NC(=O)[C@H](CCC(N)=O)NC(=O)[C@H](CO)NC(=O)[C@@H](NC(=O)[C@H](CO)NC(=O)[C@H](C)NC(=O)[C@H](CC(=O)O)NC(=O)[C@H](Cc1ccccc1)NC(=O)[C@H](CCC(=O)O)NC(=O)[C@H](CC(=O)O)NC(=O)[C@H](CO)NC(=O)[C@@H]1CCCN1C(=O)[C@H](Cc1ccccc1)NC(=O)[C@@H](NC(C)=O)C(C)C)[C@@H](C)CC)C(C)C)[C@@H](C)CC)C(=O)N[C@@H](CCCNC(=N)N)C(=O)N[C@@H](CCCCN)C(=O)N[C@@H](CO)C(=O)N[C@@H](CC(=O)O)C(=O)N[C@@H](CCC(=O)O)C(=O)N[C@@H](CC(C)C)C(=O)N[C@@H](CC(C)C)C(=O)N[C@@H](Cc1c[nH]cn1)C(=O)N[C@@H](CC(N)=O)C(=O)N[C@H](C(N)=O)C(C)C [T112]
RSV
  anti-RSV antiviral activity: substantial antiviral activity

## Ac-LQARILAVERYLKDQQQ-NH2 [DP-116, reference compound]
HIV-1LAI virus [1]
  inhibition of HIV-1 cell free virus infection: negative for inhibition of HIV-1 infection

## Ac-VYPSDEFDASISQVNEKINQALAYIRKADELLHNV-NH2 [T786]
[2]
  binding affinity relative to T112: approximately ten-fold less
[2]; B50, competition with biotin labeled T112 (T888), read-out: binding affinity
  Kd: 19 nM

## DP-180: control peptide incorporating the amino acid residues of DP178 in a scrambled sequence (NNLLRAIEAQQHLLQLTVW; Core polypeptide) [reference compound]
HIV-1LAI virus [3]; at 40 μg/ml
  anti-fusogenic activity: no evidence of anti-fusogenic activity

## H-YTNTIYTLLEESQNQQEKNEQELLELDKWASLWNWF-OH [DP-185]
HIV-1LAI virus [3]
  block of HIV-1-mediated syncytia formation: block HIV-1-mediated syncytia formation
HIV-1LAI virus [3]; FIG. 4
  inhibitory activity on HIV-1-induced syncytia formation, lowest concentration tested: ≤ 312.5 ng/mL

## M41 (maltose binding fusion protein of the gp41 ectodomain) (from UniProt P0AEX9 27-392; P03377 540-686)
[4]
  Cell fusion (IC90): > 50000 nM
  HIV infectivity (IC90): > 16000 nM

## M41-P (from UniProt P03377 540-686)
[4]
  Cell fusion (IC90): 83 nM
  HIV infectivity (IC90): 66 nM

## M41-PΔ178 (from UniProt P03377 540-642)
[4]
  Cell fusion (IC90): > 50000 nM
  HIV infectivity (IC90): > 8000 nM

## enfuvirtide
CEM cells
  cytotoxic effects on cells in culture: non-cytotoxic; also recorded: no cytotoxic effects
